Experimental data reported in patent publication US20180303853A1, “COMPOSITIONS AND METHODS FOR TREATING BACTERIAL INFECTIONS USING CEFTAROLINE” (priority 2017, published 2018).

Columns and labels:
[1] = tested on: MRSA (methicillin-resistant); format: in vivo, Staphylococcus aureus; settings: cSSSI, ME patients
Procedure: (§1) A total of 1396 adults with clinically documented complicated skin and skin structure infections (cSSSI) were enrolled in two randomized, multi-center, multinational, double-blind, studies comparing 600 mg ceftaroline fosamil administered intravenously over 1 hour every 12 hours to vancomycin plus aztreonam [1 g vancomycin administered intravenously over 1 hour followed by 1 g aztreonam administered intravenously over 1 hour every 12 hours]. Patients with cSSSI (deep/extensive cellulitis, a major abscess, a wound infection [surgical or traumatic], infected insect bites, burns or ulcers, lower extremity infection in patients with diabetes mellitus or peripheral vascular disease), were enrolled in the studies. Treatment duration was […] days. A switch to oral therapy was not allowed. The Modified Intent-to-Treat (MITT) population included all patients who received any amount of study drug according to their randomized treatment group.
(§2) The primary efficacy endpoint was clinical response at the Test of Cure (TOC) visit in the co-primary CE and MITT populations (Table 2). […] In a subgroup analysis (CE population), the comparative clinical cure rates between the ceftaroline group and the vancomycin plus aztreonam group were not affected by age, gender, race, ethnicity, or weight.

[2] = Four pooled controlled comparative Phase 3 clinical studies (two cSSSI, two CABP), safety; settings: pooled Phase 3 studies
Procedure: Ceftaroline fosamil was evaluated in four controlled comparative Phase 3 clinical studies (two in cSSSI and two in CABP).

[3] = tested on: Klebsiella pneumoniae; test: Integrated Phase 3 CABP studies, clinical cure by infecting pathogen; format: in vivo; settings: ME patients
Procedure: (§3) In both treatment groups of CABP Study 1, two doses of oral clarithromycin (500 mg q12 h), were administered as adjunctive therapy starting on Study Day 1. No adjunctive macrolide therapy was used in CABP Study 2. Patients with new or progressive pulmonary infiltrate(s) on chest radiography and clinical signs and symptoms consistent with CABP with the need for hospitalization and IV therapy were enrolled in the studies. Treatment duration was 5 to 7 days. A switch to oral therapy was not allowed. The Modified Intent-to-Treat Efficacy (MITTE) population, included all patients who received any amount of study drug according to their randomized, treatment group and were in PORT (Pneumonia Outcomes Research Team) Risk Class III or IV.
(§4) The primary efficacy endpoint was the clinical response at the Test of Cure (TOC) visit in the co-primary Ce and MITTE populations (Table 4).

[4] = tested on: Streptococcus pneumoniae; test: as above; format: in vivo; settings: ME patients
Procedure: as §3, §4

[5] = tested on: Staphylococcus aureus; test: as above; format: in vivo; settings: ME patients
Procedure: as §3, §4

[6] = tested on: Haemophilus influenzae; test: as above; format: in vivo; settings: ME patients
Procedure: as §3, §4

[7] = tested on: Escherichia coli; test: as above; format: in vivo; settings: ME patients
Procedure: as §3, §4

[8] = tested on: CYP1A2, CYP2B6, CYP2C8, CYP2C9, CYP2CI9, or CYP3A4/5; test: CYP induction in human hepatocytes; format: in vitro ADME; settings: human hepatocytes
[9] = tested on: MSSA (methicillin-susceptible); test: Integrated Phase 3 CABP studies, clinical cure by infecting pathogen; format: in vivo, Staphylococcus aureus; settings: ME patients
Procedure: as §3, §4

[10] = tested on: complicated skin and skin structure infections (cSSSI); test: Two Phase 3 studies in cSSSI, clinical cure at TOC; format: in vivo, human; settings: for Treatment Difference (2-sided 95% CI): vs Vancomycin/Aztreonam
Procedure: as §1, §2

[11] = tested on: CYP1A1, CYP1A2, CYP2A6, CYP2B6, CYP2C8, CYP2C9, CYP2C19, CYP2D6, CYP2E1 and CYP3A4; test: Cytochrome P450 inhibition in human liver microsomes; format: in vitro ADME; settings: human liver microsomes
[12] = Excretion after single IV dose of radiolabeled ceftaroline fosamil in healthy male adults; format: in vivo, human; settings: single 600 mg IV dose of radiolabeled ceftaroline fosamil
Procedure: Following administration of a single 600 mg IV dose of radiolabeled ceftaroline fosamil to healthy male adults, approximately 87% of radioactivity was recovered in urine and 6% in feces. The majority of the radioactivity (˜90%) was recovered within 48 hours. Of the radioactivity recovered in urine, approximately 64% was excreted as ceftaroline and approximately 2% as ceftaroline-M-1.

[13] = tested on: Community-Acquired Bacterial Pneumonia (CABP); test: Two Phase 3 studies in CABP, clinical cure at TOC (single and integrated/combined); format: in vivo, human; settings: for Treatment Difference (2-sided 95% CI): vs Ceftriaxone
Procedure: as §3, §4

[14] = Aqueous solubility of ceftaroline fosamil
[15] = Pharmacokinetics of ceftaroline after IV infusion of ceftaroline fosamil in adults with normal renal function
[16] = tested on: Morganella morganii; test: Phase 3 cSSSI studies, clinical cure by infecting pathogen; format: in vivo; settings: ME patients
Procedure: as §1, §2

[17] = tested on: Streptococcus agalactiae; test: as above; format: in vivo; settings: ME patients
Procedure: as §1, §2

[18] = tested on: Klebsiella pneumoniae; test: as above; format: in vivo; settings: ME patients
Procedure: as §1, §2

[19] = tested on: Streptococcus dysgalactiae; test: as above; format: in vivo; settings: ME patients
Procedure: as §1, §2

[20] = tested on: Staphylococcus aureus; test: as above; format: in vivo; settings: ME patients
Procedure: as §1, §2

[21] = tested on: Klebsiella oxytoca; test: as above; format: in vivo; settings: ME patients
Procedure: as §1, §2

[22] = tested on: Escherichia coli; test: as above; format: in vivo; settings: ME patients
Procedure: as §1, §2

[23] = tested on: Streptococcus pyogenes; test: as above; format: in vivo; settings: ME patients
Procedure: as §1, §2

[24] = tested on: MSSA (methicillin-susceptible); test: as above; format: in vivo, Staphylococcus aureus; settings: ME patients
Procedure: as §1, §2

[25] = tested on: MDRSP (multidrug-resistant); format: in vivo, Streptococcus pneumoniae; settings: CABP, ME patients
Procedure: as §3, §4

[26] = tested on: Streptococcus anginosus group; test: Phase 3 cSSSI studies, clinical cure by infecting pathogen; format: in vivo, S. anginosus, S. intermedius, and S. constellatus; settings: ME patients
Procedure: as §1, §2

[27] = tested on: complicated skin and skin structure infections (cSSSI); test: Two Phase 3 studies in cSSSI, clinical cure at TOC; format: in vivo, human; settings: Integrated Studies, CE population, 5 to 14 days of therapy

CCO/N=C(\C(=O)N[C@@H]1C(=O)N2C(C(=O)[O-])=C(Sc3nc(-c4cc[n+](C)cc4)cs3)CS[C@H]12)c1nsc(NP(=O)(O)O)n1 [Ceftaroline fosamil, (6R,7R)-7-{(2Z)-2-(ethoxyimino)-2-[5-(phosphonoamino)-1,2,4-thiadiazol-3-yl]acetamido}-3-{[4-(1-methylpyridin-1-ium-4-yl)-1,3-thiazol-2-yl]sulfanyl}-8-oxo-5-thia-1-azabicyclo[4.2.0]oct-2-ene-2-carboxylate]
Clinical cure rate by infecting pathogen [1]: 142/152 (93.4%)
Adverse reaction: Constipation [2]: 2%
Adverse reaction: Diarrhea [2]: 5%
Adverse reaction: Headache [2]: 4%
Adverse reaction: Hypokalemia [2]: 2%
Adverse reaction: Increased transaminases [2]: 2%
Adverse reaction: Insomnia [2]: 3%
Adverse reaction: Nausea [2]: 4%
Adverse reaction: Phlebitis [2]: 2%
Adverse reaction: Pruritus [2]: 2%
Adverse reaction: Rash [2]: 3%
Adverse reaction: Vomiting [2]: 2%
Serious adverse events [2]: 8%
discontinuation due to hypersensitivity (most common adverse event leading to discontinuation) [2]: 0.3%
treatment discontinuations due to adverse events [2]: 4%
Clinical cure rate by infecting pathogen [3]: 13/13 (100%)
Clinical cure rate by infecting pathogen [4]: 54/63 (85.7%)
Clinical cure rate by infecting pathogen [5]: 18/25 (72.0%)
Clinical cure rate by infecting pathogen [6]: 15/18 (83.3%)
Clinical cure rate by infecting pathogen [7]: 10/12 (83.3%)
induction of CYP isoenzymes [8]: not inducers
Clinical cure rate by infecting pathogen [9]: 18/25 (72.0%)
Clinical cure rate at TOC ([10]; Integrated Studies, MITT population): 595/693 (85.9) %
Clinical cure rate at TOC ([10]; cSSSI Study 1, CE population): 288/316 (91.1) %
Clinical cure rate at TOC ([10]; cSSSI Study 1, MITT population): 304/351 (86.6) %
Clinical cure rate at TOC ([10]; cSSSI Study 2, CE population): 271/294 (92.2) %
Clinical cure rate at TOC ([10]; cSSSI Study 2, MITT population): 291/342 (85.1) %
Treatment Difference (2-sided 95% CI) ([10]; Integrated Studies, CE): −1.1 (−4.2, 2.0)
Treatment Difference (2-sided 95% CI) ([10]; Integrated Studies, MITT): 0.3 (−3.4, 4.0)
Treatment Difference (2-sided 95% CI) ([10]; cSSSI Study 1, CE): −2.2 (−6.6, 2.1)
Treatment Difference (2-sided 95% CI) ([10]; cSSSI Study 1, MITT): 1.0 (−4.2, 6.2)
inhibition of major cytochrome P450 isoenzymes [11]: neither ceftaroline fosamil nor ceftaroline inhibits
radioactivity recovered in feces [12]: ~6%
radioactivity recovered in urine [12]: approximately 87%
radioactivity recovered within 48 hours [12]: ~90%
Clinical cure rate at TOC ([13]; CABP Study 1, CE population): 194/224 (86.6%)
Clinical cure rate at TOC ([13]; CABP Study 1, MITTE population): 244/291 (83.8%)
Clinical cure rate at TOC ([13]; CABP Study 2, CE population): 193/235 (82.1%)
Clinical cure rate at TOC ([13]; CABP Study 2, MITTE population): 235/289 (81.3%)
Clinical cure rate at TOC ([13]; Integrated Studies, CE population, 5 to 7 days of therapy): 387/459 (84.3%)
Clinical cure rate at TOC ([13]; Integrated Studies, MITTE population): 479/580 (82.6%)
Treatment Difference (2-sided 95% CI) ([13]; CABP Study 1, CE): 8.4 (1.4, 15.4)
Treatment Difference (2-sided 95% CI) ([13]; CABP Study 1, MITTE): 6.2 (−0.2, 12.6)
Treatment Difference (2-sided 95% CI) ([13]; CABP Study 2, CE): 4.9 (−2.5, 12.5)
Treatment Difference (2-sided 95% CI) ([13]; CABP Study 2, MITTE): 5.9 (−1.0, 12.7)
Treatment Difference (2-sided 95% CI) ([13]; Integrated Studies, CE): 6.7 (1.6, 11.8)
Treatment Difference (2-sided 95% CI) ([13]; Integrated Studies, MITTE): 6.0 (1.4, 10.7)
aqueous solubility [14]: 8-30 mg per ml
accumulation following multiple IV infusions ([15]; 600 mg every 8 or 12 hours for up to 14 days, normal renal function): No appreciable accumulation
conversion of prodrug in plasma ([15]; appeared to be mediated by a phosphatase enzyme): rapidly converted into bioactive ceftaroline
Clinical cure rate by infecting pathogen [16]: 11/12 (91.7%)
Clinical cure rate by infecting pathogen [17]: 21/22 (95.5%)
Clinical cure rate by infecting pathogen [18]: 17/18 (94.4%)
Clinical cure rate by infecting pathogen [19]: 13/13 (100%)
Clinical cure rate by infecting pathogen [20]: 352/378 (93.1%)
Clinical cure rate by infecting pathogen [21]: 10/12 (83.3%)
Clinical cure rate by infecting pathogen [22]: 20/21 (95.2%)
Clinical cure rate by infecting pathogen [23]: 56/56 (100%)
Clinical cure rate by infecting pathogen [24]: 212/228 (93.0%)
Clinical cure rate by infecting pathogen [25]: 4/4 (100%)
Clinical cure rate by infecting pathogen [26]: 12/13 (92.3%)
Clinical cure rate at TOC [27]: 559/610 (91.6) %
